Measurements from patent EP0007672A1, “Isocyanoalkenes, process and useful intermediates for their preparation, pharmaceutical and fungicidal preparations containing those isocyanoalkenes and the use of the fungicidal preparations in agriculture” (GIST-BROCADES N.V., priority 1978, dated 1980).
Values after ≈ are worked out from the molar mass of the structure shown. Read-outs that look alike come from different tables or passages of the source. Each block holds one compound with its values, some of them ahead of it.

Legend:
Assay in all cases: MIC (Minimum Inhibitory Concentration)
Assay type in all cases: cell-based
Trichophyton violoceum = details: read-out: MIC values
Description: (§1) In addition they may be used for combatting plant diseases, in particular as fungicides. A list of MIC (Minimum Inhibitory Concentration) values for a number of microorganisms is listed herebelow. The figures in the column headings refer to the compounds prepared according to the experimental examples in comparison with the spectrum of 1-[2-(2,4-dichlorophenyl)-2-{(2,4-dichlorophenyl)-methoxy} -ethyl7-1H-imidazole (better known under the name of miconazole, c.f. Merck Index 9th Ed. page 6047) or natamycin (pimaricin, c.f. Merck Index 9th Ed. page 7233).

[1] = test system: Trichophyton schoenleinii; details: read-out: MIC values
Description: as §1

Candida albicans = test system: Candida albicans
Description: as §1

Trichophyton equinum = test system: Trichophyton equinum
Description: as §1

Trichophyton quickeaneum = details: read-out: MIC values
Description: as §1

Pasteurella multocida = details: read-out: MIC values
Description: as §1

Trichophyton rubrum = test system: Trichophyton rubrum
Description: as §1

[2] = test system: Trichophyton mentagrophytus
Description: as §1

[3] = test system: Streptococcus haemolyticus; details: read-out: MIC values
Description: as §1

Trichophyton verrucosum = test system: Trichophyton verrucosum
Description: as §1

Trichophyton tonsurans = details: read-out: MIC values
Description: as §1

[4] = read-out: MIC values, Candida albicans A 7
[5] = read-out: MIC values, Candida albicans A 3140
[6] = read-out: MIC values, Candida albicans A 3141
[7] = read-out: MIC values, Candida albicans A 3142
[8] = read-out: MIC values, Candida albicans A 3143
[9] = read-out: MIC values, Candida albicans A 3144
[10] = read-out: MIC values, Candida albicans A 3145
[11] = read-out: MIC values, Candida albicans A 3165
[12] = read-out: MIC values, Candida albicans A 3166
[13] = read-out: MIC values, Candida albicans A 3167
[14] = read-out: MIC values, Candida albicans A 3168
[15] = read-out: MIC values, Candida albicans A 3169
[16] = read-out: MIC values, Candida albicans A 3171
[17] = read-out: MIC values, Candida albicans A 3184
[18] = read-out: MIC values, Candida albicans A 3190
[19] = read-out: MIC values, Candida albicans A 3191
[20] = read-out: MIC values, Candida albicans A 3192
[21] = read-out: MIC values, Candida albicans A 3194
[22] = read-out: MIC values, Candida albicans A 3196
[23] = read-out: MIC values, Trichophyton equinum 182-76
[24] = read-out: MIC values, Trichophyton equinum 856-71
[25] = read-out: MIC values, Trichophyton rubrum 218-65
[26] = read-out: MIC values, Trichophyton rubrum 494-62
[27] = read-out: MIC values, Trichophyton mentagrophytus 367-68
[28] = read-out: MIC values, Trichophyton mentagrophytus 421-67
[29] = read-out: MIC values, Trichophyton mentagrophytus A 3252
[30] = read-out: MIC values, Trichophyton mentagrophytus R 177
[31] = read-out: MIC values, Trichophyton mentagrophytus R 178
[32] = read-out: MIC values, Trichophyton mentagrophytus RRL 305

Structure (SMILES): [C-]#[N+]C(C1=CCCCCC1)S(=O)(=O)c1ccc(C)cc1 (stereo not shown) [Example 18b, a-(cyclohepten-1-yl)-a-(4-toluenesulphonyl)-methylisocyanide]
- MIC (Trichophyton violoceum; Trichophyton): 6 µg/mL (≈ 20.7 µM)
- MIC ([1]; Trichophyton schoenleinii): 6 µg/mL (≈ 20.7 µM)
- MIC (Candida albicans; [4]): 6 µg/mL (≈ 20.7 µM)
- MIC (Candida albicans; [5]): 6 µg/mL (≈ 20.7 µM)
- MIC (Candida albicans; [6]): 12.5 µg/mL (≈ 43.2 µM)
- MIC (Candida albicans; [7]): 12.5 µg/mL (≈ 43.2 µM)
- MIC (Candida albicans; [8]): 12.5 µg/mL (≈ 43.2 µM)
- MIC (Candida albicans; [9]): 12.5 µg/mL (≈ 43.2 µM)
- MIC (Candida albicans; [10]): 6 µg/mL (≈ 20.7 µM)
- MIC (Candida albicans; [11]): 12.5 µg/mL (≈ 43.2 µM)
- MIC (Candida albicans; [12]): 12.5 µg/mL (≈ 43.2 µM)
- MIC (Candida albicans; [13]): 12.5 µg/mL (≈ 43.2 µM)
- MIC (Candida albicans; [14]): 6 µg/mL (≈ 20.7 µM)
- MIC (Candida albicans; [15]): 12.5 µg/mL (≈ 43.2 µM)
- MIC (Candida albicans; [16]): 12.5 µg/mL (≈ 43.2 µM)
- MIC (Candida albicans; [17]): 12.5 µg/mL (≈ 43.2 µM)
- MIC (Candida albicans; [18]): 12.5 µg/mL (≈ 43.2 µM)
- MIC (Candida albicans; [19]): 12.5 µg/mL (≈ 43.2 µM)
- MIC (Candida albicans; [20]): 12.5 µg/mL (≈ 43.2 µM)
- MIC (Candida albicans; [21]): 25 µg/mL (≈ 86.4 µM)
- MIC (Candida albicans; [22]): 12.5 µg/mL (≈ 43.2 µM)
- MIC (Trichophyton equinum; [23]): > 100 µg/mL
- MIC (Trichophyton equinum; read-out: MIC values, Trichophyton equinum 441-51): < 0.05 µg/mL
- MIC (Trichophyton equinum; [24]): 100 µg/mL (≈ 346 µM)
- MIC (Trichophyton quickeaneum; Trichophyton): 25 µg/mL (≈ 86.4 µM)
- MIC (Pasteurella multocida; Pasteurella multocida): 50 µg/mL (≈ 173 µM)
- MIC (Trichophyton rubrum; [25]): 100 µg/mL (≈ 346 µM)
- MIC (Trichophyton rubrum; [26]): > 100 µg/mL
- MIC [2, 27]: 25 µg/mL (≈ 86.4 µM)
- MIC [2, 28]: > 100 µg/mL
- MIC [2, 29]: > 100 µg/mL
- MIC [2, 30]: > 100 µg/mL
- MIC [2, 31]: > 100 µg/mL
- MIC [2, 32]: > 100 µg/mL
- MIC ([3]; Streptococcus): 25 µg/mL (≈ 86.4 µM)
- MIC (Trichophyton verrucosum; read-out: MIC values, Trichophyton verrucosum 134-66): 3 µg/mL (≈ 10.4 µM)
- MIC (Trichophyton verrucosum; read-out: MIC values, Trichophyton verrucosum A 2922): 12.5 µg/mL (≈ 43.2 µM)

- MIC (Trichophyton violoceum; Trichophyton violoceum 442-62): 25 µg/mL (≈ 100 µM)
- MIC ([1]; Trichophyton schoenleinii 435-63): 25 µg/mL (≈ 100 µM)
- MIC (Candida albicans; Candida albicans A 7, read-out: MIC values): 25 µg/mL (≈ 100 µM)
- MIC (Candida albicans; Candida albicans A 3140, read-out: MIC values): 25 µg/mL (≈ 100 µM)
- MIC (Candida albicans; Candida albicans A 3141, read-out: MIC values): 25 µg/mL (≈ 100 µM)
- MIC (Candida albicans; Candida albicans A 3142, read-out: MIC values): 3 µg/mL (≈ 12 µM)
- MIC (Candida albicans; Candida albicans A 3143, read-out: MIC values): 12.5 µg/mL (≈ 50.1 µM)
- MIC (Candida albicans; Candida albicans A 3144, read-out: MIC values): 12.5 µg/mL (≈ 50.1 µM)
- MIC (Candida albicans; Candida albicans A 3145, read-out: MIC values): 12.5 µg/mL (≈ 50.1 µM)
- MIC (Candida albicans; Candida albicans A 3165, read-out: MIC values): 25 µg/mL (≈ 100 µM)
- MIC (Candida albicans; Candida albicans A 3166, read-out: MIC values): 50 µg/mL (≈ 201 µM)
- MIC (Candida albicans; Candida albicans A 3167, read-out: MIC values): 50 µg/mL (≈ 201 µM)
- MIC (Candida albicans; Candida albicans A 3168, read-out: MIC values): 50 µg/mL (≈ 201 µM)
- MIC (Candida albicans; Candida albicans A 3169, read-out: MIC values): 25 µg/mL (≈ 100 µM)
- MIC (Candida albicans; Candida albicans A 3171, read-out: MIC values): 25 µg/mL (≈ 100 µM)
- MIC (Candida albicans; Candida albicans A 3184, read-out: MIC values): 25 µg/mL (≈ 100 µM)
- MIC (Candida albicans; Candida albicans A 3190, read-out: MIC values): 25 µg/mL (≈ 100 µM)
- MIC (Candida albicans; Candida albicans A 3191, read-out: MIC values): 25 µg/mL (≈ 100 µM)
- MIC (Candida albicans; Candida albicans A 3192, read-out: MIC values): 25 µg/mL (≈ 100 µM)
- MIC (Candida albicans; Candida albicans A 3194, read-out: MIC values): 25 µg/mL (≈ 100 µM)
- MIC (Candida albicans; Candida albicans A 3196, read-out: MIC values): 25 µg/mL (≈ 100 µM)
- MIC (Trichophyton equinum; Trichophyton equinum 182-76, read-out: MIC values): 50 µg/mL (≈ 201 µM)
- MIC (Trichophyton equinum; Trichophyton equinum 856-71, read-out: MIC values): 50 µg/mL (≈ 201 µM)
- MIC (Trichophyton quickeaneum; Trichophyton quickeaneum A 2040): 100 µg/mL (≈ 401 µM)
- MIC (Pasteurella multocida; Pasteurella multocida A 723): 50 µg/mL (≈ 201 µM)
- MIC (Trichophyton rubrum; Trichophyton rubrum 218-65, read-out: MIC values): 25 µg/mL (≈ 100 µM)
- MIC (Trichophyton rubrum; Trichophyton rubrum 494-62, read-out: MIC values): 50 µg/mL (≈ 201 µM)
- MIC (Trichophyton rubrum; Trichophyton rubrum A 810, read-out: MIC values): 25 µg/mL (≈ 100 µM)
- MIC (Trichophyton tonsurans; Trichophyton tonsurans 561-50): 25 µg/mL (≈ 100 µM)
- MIC ([2]; Trichophyton mentagrophytus 367-68, read-out: MIC values): 100 µg/mL (≈ 401 µM)
- MIC ([2]; Trichophyton mentagrophytus 421-67, read-out: MIC values): 50 µg/mL (≈ 201 µM)
- MIC ([2]; Trichophyton mentagrophytus A 3252, read-out: MIC values): 25 µg/mL (≈ 100 µM)
- MIC ([2]; Trichophyton mentagrophytus R 177, read-out: MIC values): 25 µg/mL (≈ 100 µM)
- MIC ([2]; Trichophyton mentagrophytus R 178, read-out: MIC values): 25 µg/mL (≈ 100 µM)
- MIC ([2]; Trichophyton mentagrophytus RRL 305, read-out: MIC values): 50 µg/mL (≈ 201 µM)
Structure (SMILES): [C-]#[N+]C(=CCCC)S(=O)(=O)c1ccc(C)cc1 [Example 24, 1-isocyano-1-(4-toluenesulphonyl)-1-pentene]
- MIC ([3]; Streptococcus haemolyticus A 1088): 100 µg/mL (≈ 401 µM)

Structure (SMILES): [C-]#[N+]C(=C1CCCCC1)S(=O)(=O)c1ccccc1 [Example 25, a-cyclohexylidene-a-benzenesulphonylmethyl-isocyanide]
- MIC (Trichophyton violoceum; Trichophyton): 3 µg/mL (≈ 11.5 µM)
- MIC ([1]; Trichophyton schoenleinii): 0.8 µg/mL (≈ 3.06 µM)
- MIC (Candida albicans; [4]): 1.5 µg/mL (≈ 5.74 µM)
- MIC (Candida albicans; [5]): 1.5 µg/mL (≈ 5.74 µM)
- MIC (Candida albicans; [6]): 1.5 µg/mL (≈ 5.74 µM)
- MIC (Candida albicans; [7]): 1.5 µg/mL (≈ 5.74 µM)
- MIC (Candida albicans; [8]): 1.5 µg/mL (≈ 5.74 µM)
- MIC (Candida albicans; [9]): 3 µg/mL (≈ 11.5 µM)
- MIC (Candida albicans; [10]): 3 µg/mL (≈ 11.5 µM)
- MIC (Candida albicans; [11]): 3 µg/mL (≈ 11.5 µM)
- MIC (Candida albicans; [12]): 1.5 µg/mL (≈ 5.74 µM)
- MIC (Candida albicans; [13]): 3 µg/mL (≈ 11.5 µM)
- MIC (Candida albicans; [14]): 6 µg/mL (≈ 23 µM)
- MIC (Candida albicans; [15]): 1.5 µg/mL (≈ 5.74 µM)
- MIC (Candida albicans; [16]): 3 µg/mL (≈ 11.5 µM)
- MIC (Candida albicans; [17]): 1.5 µg/mL (≈ 5.74 µM)
- MIC (Candida albicans; [18]): 3 µg/mL (≈ 11.5 µM)
- MIC (Candida albicans; [19]): 6 µg/mL (≈ 23 µM)
- MIC (Candida albicans; [20]): 1.5 µg/mL (≈ 5.74 µM)
- MIC (Candida albicans; [21]): 3 µg/mL (≈ 11.5 µM)
- MIC (Candida albicans; [22]): 3 µg/mL (≈ 11.5 µM)
- MIC (Trichophyton equinum; [23]): 6 µg/mL (≈ 23 µM)
- MIC (Trichophyton equinum; [24]): 12.5 µg/mL (≈ 47.8 µM)
- MIC (Trichophyton quickeaneum; Trichophyton): 3 µg/mL (≈ 11.5 µM)
- MIC (Pasteurella multocida; Pasteurella multocida): 3 µg/mL (≈ 11.5 µM)
- MIC (Trichophyton rubrum; [25]): 0.4 µg/mL (≈ 1.53 µM)
- MIC (Trichophyton rubrum; [26]): 6 µg/mL (≈ 23 µM)
- MIC (Trichophyton rubrum; read-out: MIC values, Trichophyton rubrum A 810): 0.4 µg/mL (≈ 1.53 µM)
- MIC (Trichophyton tonsurans; Trichophyton tonsurans): 0.2 µg/mL (≈ 0.765 µM)
- MIC [2, 27]: 1.5 µg/mL (≈ 5.74 µM)
- MIC [2, 28]: 1.5 µg/mL (≈ 5.74 µM)
- MIC [2, 29]: 3 µg/mL (≈ 11.5 µM)
- MIC [2, 30]: 3 µg/mL (≈ 11.5 µM)
- MIC [2, 31]: 3 µg/mL (≈ 11.5 µM)
- MIC [2, 32]: 3 µg/mL (≈ 11.5 µM)
- MIC ([3]; Streptococcus): 25 µg/mL (≈ 95.7 µM)
